This test deals with IL-6 production in primary human mesangial cells. In words: ET-1 induced IL-6 production (ELISA) in primary human renal mesangial cells. It is filed as cell-based.

Positions of bridges follow the written chain, without caps; N, C: chain ends. No end group written: not given here.

With “ET-1: endothelin 1, used to stimulate primary human mesangial cells (CSCSSLMDKECVYFCHLDIIW; disulfide 1-15, 3-11; ends not checked; UniProt P05305 53-73, looked up)”, the “increase in IL-6 production by primary human mesangial cells” value was about 6 fold (exposed to ET-1 over 48 hours) and about 2.2 fold (exposed to ET-1 over 72 hours).

For the origin of these results see US20210353593A1 (Chinook Therapeutics, Inc., priority 2019, published 2021).
